Assay results from patent US20250154686A1, “COMPOUND LIBRARY” (CHUGAI SEIYAKU KABUSHIKI KAISHA, priority 2021, published 2025).

Biological target: T1, Bcl-2 protein (Recombinant Human Bcl-2 Protein) (Homo sapiens, UniProt P10415)
T1 construct: purchased Novus Biologicals NBP2-34889
Test: AS-MS evaluation of binding of the Example 4 mixture library (1200 compounds/well) to Bcl-2, ASMS ratio (%)
How it was run: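 ASMS ratio (%) derived from reverse-phase LC/MS of three samples: Bcl-2 (20 μM) incubation after SEC, protein-free standard without SEC, and protein-free blank after SEC. Compounds were pooled at 1200/well, 20 nM each, incubated 1 h, 23 °C, dark, in Tris-HCl pH 7.4 buffer with Tween-20 and DTT.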

[1] = replicate n = 1, mixture library, value belongs to the MS peak assigned to the compound
[2] = replicate n = 2, mixture library, value belongs to the MS peak assigned to the compound
[3] = AS-MS, Example 4 mixture library, Bcl-2, replicate n = 1
[4] = AS-MS, Example 4 mixture library, Bcl-2, replicate n = 2

T1 sequence (P10415 whole entry): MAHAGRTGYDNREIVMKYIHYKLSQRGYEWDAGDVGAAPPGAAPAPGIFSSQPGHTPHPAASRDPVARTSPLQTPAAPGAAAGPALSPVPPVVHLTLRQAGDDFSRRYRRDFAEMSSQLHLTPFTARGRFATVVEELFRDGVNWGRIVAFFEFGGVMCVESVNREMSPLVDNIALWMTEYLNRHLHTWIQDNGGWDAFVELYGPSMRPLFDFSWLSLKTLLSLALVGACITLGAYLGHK

SMILES | ASMS ratio (%) n = 1 [1] | ASMS ratio (%) n = 2 [2] | ASMS ratio (%) n = 1 [3] | ASMS ratio (%) n = 2 [4]
CCOc1cccc(-c2cc(CN3CCN(c4ccc(C(=O)NS(=O)(=O)C(C)(C)C)cc4)CC3)cc(OC(C)C)c2)c1 [Compound B2L057-01, N-tert-Butylsulfonyl-4-[4-[3-(3-ethoxyphenyl)-5-propan-2-yloxyphenylmethyl]piperazin-1-yl]benzamide] | 0.0% | 0.0% | – | –
CCOc1cncc(-c2cc(CN3CCN(c4ccc(C(=O)NS(=O)(=O)C(C)(C)C)cc4)CC3)cc(OC(C)C)c2)c1 [Compound B2L058-01] | 0.0% | 0.0% | – | –
CCOc1cccc(-c2cc(OC)c(CN3CCN(c4ccc(C(=O)NS(=O)(=O)C(C)(C)C)cc4)CC3)c(OC)c2)c1 [Compound B2L059-01, N-tert-Butylsulfonyl-4-[4-[[4-(3-ethoxyphenyl)-2,6-dimethoxyphenyl]methyl]piperazin-1-yl]benzamide] | 0.0% | 0.0% | – | –
CCOc1cncc(-c2cc(OC)c(CN3CCN(c4ccc(C(=O)NS(=O)(=O)C(C)(C)C)cc4)CC3)c(OC)c2)c1 [Compound B2L060-01] | – | 0.0% | – | –
CCOc1cccc(-c2cc(CN3CCN(c4ccc(C(=O)NS(=O)(=O)C(C)(C)C)cc4)CC3)cc(C(F)(F)F)c2)c1 [Compound B2L061-01, N-tert-Butylsulfonyl-4-[4-[[3-(3-ethoxyphenyl)-5-(trifluoromethyl)phenyl]methyl]piperazin-1-yl]benzamide] | 4.6% | −11.1% | – | –
CCOc1cncc(-c2cc(CN3CCN(c4ccc(C(=O)NS(=O)(=O)C(C)(C)C)cc4)CC3)cc(C(F)(F)F)c2)c1 [Compound B2L062-01, N-tert-Butylsulfonyl-4-[4-[[3-(5-ethoxypyridin-3-yl)-5-(trifluoromethyl)phenyl]methyl]piperazin-1-yl]benzamide] | 0.0% | 0.0% | – | –
CCOc1cccc(-c2cc(CN3CCN(c4ccc(C(=O)NS(=O)(=O)C(C)(C)C)cc4)CC3)cc(OC(F)(F)F)c2)c1 [Compound B2L063-01, N-tert-Butylsulfonyl-4-[4-[[3-(3-ethoxyphenyl)-5-(trifluoromethoxy)phenyl]methyl]piperazin-1-yl]benzamide] | 0.0% | 0.0% | – | –
CCOc1cncc(-c2cc(CN3CCN(c4ccc(C(=O)NS(=O)(=O)C(C)(C)C)cc4)CC3)cc(OC(F)(F)F)c2)c1 [Compound B2L064-01] | 0.0% | 0.0% | – | –
CCOc1cncc(-c2ccc(CN3CCN(c4ccc(C(=O)NS(=O)(=O)C(C)(C)C)cc4)CC3)c3ccccc23)c1 [Compound B2L066-01, N-tert-Butylsulfonyl-4-[4-[[4-(5-ethoxypyridin-3-yl)naphthalen-1-yl]methyl]piperazin-1-yl]benzamide] | 0.0% | 0.0% | – | –
CCOc1cccc(-c2csc(CN3CCN(c4ccc(C(=O)NS(=O)(=O)C(C)(C)C)cc4)CC3)c2)c1 [Compound B2L067-01] | 0.0% | 0.0% | – | –
CCOc1cncc(-c2csc(CN3CCN(c4ccc(C(=O)NS(=O)(=O)C(C)(C)C)cc4)CC3)c2)c1 [Compound B2L068-01] | 0.0% | 0.0% | – | –
CCOc1cccc(C#Cc2ccccc2CN2CCN(c3ccc(C(=O)NS(=O)(=O)C(C)(C)C)cc3)CC2)c1 [Compound B2L069-01, N-tert-Butylsulfonyl-4-[4-[[2-[2-(3-ethoxyphenyl)ethynyl]phenyl]methyl]piperazin-1-yl]benzamide] | 0.0% | 0.0% | – | –
CCOc1cncc(C#Cc2ccccc2CN2CCN(c3ccc(C(=O)NS(=O)(=O)C(C)(C)C)cc3)CC2)c1 [Compound B2L070-01] | 4.9% | −4.2% | – | –
CCOc1cccc(-c2ccccc2CN2CCN(c3ccc(C(=O)NS(=O)(=O)C(C)(C)C)nn3)CC2)c1 [Compound B2L071-01, N-tert-Butylsulfonyl-6-[4-[2-(3-ethoxyphenyl)phenyl]methyl]piperazin-1-yllpyridazine-3-carboxamide] | 1.2% | 0.0% | – | –
CCOc1cncc(-c2ccccc2CN2CCN(c3ccc(C(=O)NS(=O)(=O)C(C)(C)C)nn3)CC2)c1 [Compound B2L072-01, N-tert-Butylsulfonyl-6-[4-[[2-(5-ethoxypyridin-3-yl)phenyl]methyl]piperazin-1-yl]pyridazine-3-carboxamide] | −10.7% | 8.3% | – | –

Results, then the compound that gave them:

ASMS ratio (%) n = 1 [1] | ASMS ratio (%) n = 2 [2] | ASMS ratio (%) n = 1 [3] | ASMS ratio (%) n = 2 [4] | SMILES
0.0% | 0.0% | – | – | CCOc1cccc(-c2ccc(CN3CCN(c4ccc(C(=O)NS(=O)(=O)C(C)(C)C)nn4)CC3)cc2C)c1 [Compound B2L073-01]
−1.0% | 1.4% | – | – | CCOc1cncc(-c2ccc(CN3CCN(c4ccc(C(=O)NS(=O)(=O)C(C)(C)C)nn4)CC3)cc2C)c1 [Compound B2L074-01]
0.0% | 33.9% | – | – | CCOc1cccc(-c2ccc(CN3CCN(c4ccc(C(=O)NS(=O)(=O)C(C)(C)C)nn4)CC3)c(CC)c2)c1 [Compound B2L075-01]
1.8% | −0.3% | – | – | CCOc1cncc(-c2ccc(CN3CCN(c4ccc(C(=O)NS(=O)(=O)C(C)(C)C)nn4)CC3)c(CC)c2)c1 [Compound B2L076-01]
0.0% | 0.0% | – | – | CCOc1cccc(-c2ccc(CN3CCN(c4ccc(C(=O)NS(=O)(=O)C(C)(C)C)nn4)CC3)cc2F)c1 [Compound B2L077-01, N-tert-Butylsulfonyl-6-[4-[4-(3-ethoxyphenyl)-3-fluorophenyl]methyl]piperazin-1-yllpyridazine-3-carboxamide]
1.1% | −0.7% | – | – | CCOc1cncc(-c2ccc(CN3CCN(c4ccc(C(=O)NS(=O)(=O)C(C)(C)C)nn4)CC3)cc2F)c1 [Compound B2L078-01, N-tert-Butylsulfonyl-6-[4-[[4-(5-ethoxypyridin-3-yl)-3-fluorophenyl]methyl]piperazin-1-yl]pyridazine-3-carboxamide]
0.0% | 0.0% | – | – | CCOc1cccc(-c2ccc(CN3CCN(c4ccc(C(=O)NS(=O)(=O)C(C)(C)C)nn4)CC3)c(OC)c2)c1 [Compound B2L079-01]
0.0% | 0.0% | – | – | CCOc1cncc(-c2ccc(CN3CCN(c4ccc(C(=O)NS(=O)(=O)C(C)(C)C)nn4)CC3)c(OC)c2)c1 [Compound B2L080-01]
– | – | 0.0% | 0.0% | CCOc1cccc(-c2cc(CN3CCN(c4ccc(C(=O)NS(=O)(=O)C(C)(C)C)nn4)CC3)cc(OCC)c2)c1 [Compound B2L081-01, N-tert-Butylsulfonyl-6-[4-[3-ethoxy-5-(3-ethoxyphenyl)phenyl]methyl]piperazin-1-yllpyridazine-3-carboxamide]
– | – | 2.6% | −1.2% | CCOc1cncc(-c2cc(CN3CCN(c4ccc(C(=O)NS(=O)(=O)C(C)(C)C)nn4)CC3)cc(OCC)c2)c1 [Compound B2L082-01]
– | – | 0.0% | 0.0% | CCOc1cccc(-c2cc(CN3CCN(c4ccc(C(=O)NS(=O)(=O)C(C)(C)C)nn4)CC3)cc(OC(C)C)c2)c1 [Compound B2L083-01]
– | – | −3.0% | −1.9% | CCOc1cncc(-c2cc(CN3CCN(c4ccc(C(=O)NS(=O)(=O)C(C)(C)C)nn4)CC3)cc(OC(C)C)c2)c1 [Compound B2L084-01, N-tert-Butylsulfonyl-6-[4-[3-(5-ethoxypyridin-3-yl)-5-propan-2-yloxyphenylmethyl]piperazin-1-yl]pyridazine-3-carboxamide]
– | – | 0.0% | 0.0% | CCOc1cccc(-c2cc(OC)c(CN3CCN(c4ccc(C(=O)NS(=O)(=O)C(C)(C)C)nn4)CC3)c(OC)c2)c1 [Compound B2L085-01, N-tert-Butylsulfonyl-6-[4-[[4-(3-ethoxyphenyl)-2,6-dimethoxyphenyl]methyl]piperazin-1-yl]pyridazine-3-carboxamide]
– | – | – | 0.0% | CCOc1cncc(-c2cc(OC)c(CN3CCN(c4ccc(C(=O)NS(=O)(=O)C(C)(C)C)nn4)CC3)c(OC)c2)c1 [Compound B2L086-01]
– | – | 1.9% | −24.6% | CCOc1cccc(-c2cc(CN3CCN(c4ccc(C(=O)NS(=O)(=O)C(C)(C)C)nn4)CC3)cc(C(F)(F)F)c2)c1 [Compound B2L087-01, N-tert-Butylsulfonyl-6-[4-[[3-(3-ethoxyphenyl)-5-(trifluoromethyl)phenyl]methyl]piperazin-1-yl]pyridazine-3-carboxamide]
– | – | 0.0% | 2.8% | CCOc1cncc(-c2cc(CN3CCN(c4ccc(C(=O)NS(=O)(=O)C(C)(C)C)nn4)CC3)cc(C(F)(F)F)c2)c1 [Compound B2L088-01]
– | – | 0.0% | 0.0% | CCOc1cccc(-c2cc(CN3CCN(c4ccc(C(=O)NS(=O)(=O)C(C)(C)C)nn4)CC3)cc(OC(F)(F)F)c2)c1 [Compound B2L089-01, N-tert-Butylsulfonyl-6-[4-[[3-(3-ethoxyphenyl)-5-(trifluoromethoxy)phenyl]methyl]piperazin-1-yl]pyridazine-3-carboxamide]
– | – | 0.0% | 0.0% | CCOc1cncc(-c2cc(CN3CCN(c4ccc(C(=O)NS(=O)(=O)C(C)(C)C)nn4)CC3)cc(OC(F)(F)F)c2)c1 [Compound B2L090-01]
– | – | 0.0% | 0.0% | CCOc1cccc(-c2ccc(CN3CCN(c4ccc(C(=O)NS(=O)(=O)C(C)(C)C)nn4)CC3)c3ccccc23)c1 [Compound B2L091-01]
